Measurements taken from patent US9145351B2, “Azole derivatives, methods for producing the same, intermediate thereof, agro-horticultural agents” (KUREHA CORPORATION, priority 2009, dated 2015).

Legend:
Cladosporium sp. = test: Plate medium assay, industrial material deteriorating microorganism, Cladosporium (Experimental Example 5); assay type: cell-based; conditions: treatment at 50 mg/l, PDA plate medium, read-out: growth inhibition grade
Procedure: (§1) In this Experimental Example, the fungicidal effects of the inventive compounds on various phytopathogenic fungi for plants and hazardous microorganism for industrial materials were examined by the methods described below. Each inventive compound was dissolved in 2 ml of dimethyl sulfoxide. 0.6 ml of this solution was added to 60 nil of a PDA medium (potato dextrose agar medium) at about 60 degrees C., which was mixed thoroughly in a 100-ml conical flask, and poured into a dish, where it was solidified, thereby obtaining a plate medium containing the inventive compound at 50 mg/L and 5 mg/L. On the other hand, a subject microorganism previously cultured on a plate medium was cut out using a cork borer whose diameter was 4 mm, and inoculated to the test compound-containing plate medium described above. […] The growth degree of the microorganism on the test compound-containing plate medium thus observed was compared with the growth degree of the microorganism in the untreated group, and % mycelial growth inhibition was calculated by the following equation. R=100(dc-dt)/dc wherein R=% mycelial extension inhibition, dc=flora diameter in untreated plate, dt=flora diameter in treated plate. The results obtained as described above were evaluated as one of the 5 grades according to the following criteria.

Aspergillus sp. = test: Plate medium assay, industrial material deteriorating microorganism, Aspergillus (Experimental Example 5); assay type: cell-based; conditions: treatment at 50 mg/l, PDA plate medium, read-out: growth inhibition grade
Procedure: as §1

Penicillium sp. = test: Plate medium assay, industrial material deteriorating microorganism, Penicillium (Experimental Example 5); assay type: cell-based; conditions: treatment at 50 mg/l, PDA plate medium, read-out: growth inhibition grade
Procedure: as §1

Mucor sp. = test: Plate medium assay, industrial material deteriorating microorganism, Mucor (Experimental Example 5); assay type: cell-based; conditions: treatment at 50 mg/l, PDA plate medium, read-out: growth inhibition grade
Procedure: as §1

Curvularia sp. = test: Plate medium assay, industrial material deteriorating microorganism, Curvularia (Experimental Example 5); assay type: cell-based; conditions: treatment at 50 mg/l, PDA plate medium, read-out: growth inhibition grade
Procedure: as §1

Fusarium graminearum = test: whole plant or invertebrate; assay type: in vivo; conditions: in Triticum aestivum, 168 h, read-out: Protective value
Aureobasidium sp. = test: Plate medium assay, industrial material deteriorating microorganism, Aureobasidium (Experimental Example 5); assay type: cell-based; conditions: treatment at 50 mg/l, PDA plate medium, read-out: growth inhibition grade
Procedure: as §1

Botrytis cinerea = test: Efficacy test against cucumber gray mold (Experimental Example 1); assay type: in vivo; conditions: 96 h, four days after inoculation, read-out: Protective value; for pest or weed control at 50 µg/mL: 50 mg/L sprayed at 1,000 L/ha; for pest or weed control at 100 µg/mL: 100 mg/L sprayed at 1,000 L/ha
Procedure: Onto a cucumber (variety:SHARP1) plant in its cotyledon phase grown using a square plastic pot (6 cm×6 cm), a wettable formulation such as Formulation Example 1 which was diluted and suspended in water at a certain concentrations (100 mg/L and 50 mg/L) was sprayed at a rate of 1,000 L/ha. The sprayed leaves were air-dried, and loaded with a paper disc (8 mm in diameter) soaked in a spore suspension of Botrytis cinerea, and kept at 20 degrees C. and a high humidity. Four days after inoculation, the cucumber gray mold lesion degree was investigated, and the protective value was calculated by the following equation. Protective value (%)=(1−mean lesion degree in sprayed plot/mean lesion degree in unsprayed plot)×100

Puccinia recondita [1] = test: Efficacy test against wheat brown rust, 100 mg/L and 10 mg/L (Experimental Example 2); assay type: in vivo; conditions: nine to 14 days after inoculation; for efficacy compared with compound (1): 10 mg/L sprayed at 1,000 L/ha; for pest or weed control at 100 µg/mL: Puccinia recondita, 336 h, 100 mg/L sprayed at 1,000 L/ha, read-out: Protective value
Procedure: Onto a wheat plant (variety: NORIN No. 61) grown to the two-leaf phase using a square plastic pot (6 cm×6 cm), a wettable formulation such as Formulation Example 1 which was diluted and suspended in water at a certain concentration (100 mg/L and 10 mg/L) was sprayed at a rate of 1,000 L/ha. The sprayed leaves were air-dried, and inoculated with spore suspension of Puccinia recondita (adjusted at 200 spores/vision, […] was added at 60 ppm) by spraying, and kept at 25 degrees C. and a high humidity for 48 hours. Thereafter, the plant was kept in a greenhouse. Nine to 14 days after inoculation, the wheat brown rust lesion degree was investigated, and the protective value was calculated by the following equation. Protective value (%)=(1-lesion degree in sprayed plot/lesion degree in unsprayed plot)×100

Tyromyces palustris = test: Plate medium assay, wood denaturing microorganism Oouzuratake (Experimental Example 5); assay type: cell-based; conditions: treatment at 50 mg/l, PDA plate medium; read-out: growth inhibition grade
Procedure: as §1

Coriolus versicolor = test: Plate medium assay, wood denaturing microorganism Kawaratake (Experimental Example 5); assay type: cell-based; conditions: Trametes versicolor; treatment at 50 mg/l, PDA plate medium; read-out: growth inhibition grade
Procedure: as §1

Septoria tritici [2] = test: Microplate test of biocidal effect on wheat Septoria blotch (Experimental Example 4); assay type: cell-based; conditions: Zymoseptoria tritici, 240 h; % mycelium growth inhibition, absorbance 550 nm, 20 degrees C. for about 10 days; read-out: activity level (EC80)
Procedure: A spore suspension of wheat Septoria blotch (Septoria tritici) (spore concentration: 1×10^6 cells/ml) was prepared, and subjected to 100-fold dilution with a PD medium. A flat 96-well microplate was provided and 1 microliter of the test compound solution formed by dissolution in dimethyl sulfoxide (DMSO) at a concentration 100 times the test concentration was dispensed to the microplate, and then 100 microliter of the medium containing the spore was added and stirred thoroughly. […] R=100×(dc−dt)/dc: R: % mycelium growth inhibition dc: Absorbance of non-treatment zone dt: Absorbance of treatment zone

Septoria tritici [3] = test: Assay for fungicidal effect on Septoria tritici, plate medium 1.25 mg/L (Experimental Example 9); assay type: cell-based
Procedure: as §1, with “Each” for “In this Experimental Example, the fungicidal effects of the inventive compounds on various phytopathogenic fungi for plants and hazardous microorganism for industrial materials were examined by the methods described below. Each”, “R=100(dc−dt)/dc” for “R=100(dc-dt)/dc”, “criteria. […] In this Experimental Example, the fungicidal effects of the inventive compounds on Septoria tritici were examined by the methods described in the Experimental Example 5. In this Experimental Example, the inventive compounds were diluted at 1.25 mg/L.” for “criteria.”

Puccinia recondita [4] = test: Efficacy test against wheat brown rust, 1 mg/L (Experimental Example 10); assay type: in vivo; conditions: 1 g/ha (1 mg/L sprayed at 1,000 L/ha)

| SMILES | inhibition at 50 µg/mL (Cladosporium sp.) [%] | inhibition at 50 µg/mL (Aspergillus sp.) [%] | inhibition at 50 µg/mL (Penicillium sp.) [%] | inhibition at 50 µg/mL (Mucor sp.) [%] | inhibition at 50 µg/mL (Curvularia sp.) [%] | pest or weed control at 100 µg/mL (Fusarium graminearum) [%] | pest or weed control at 500 µg/mL (Fusarium graminearum) [%] | inhibition at 50 µg/mL (Aureobasidium sp.) [%] | pest or weed control at 50 µg/mL (Botrytis cinerea) [%] | pest or weed control at 100 µg/mL (Botrytis cinerea) [%] | efficacy compared with compound (1) (Puccinia recondita [1]) | pest or weed control at 100 µg/mL (Puccinia recondita [1]) [%] | inhibition at 50 µg/mL (Tyromyces palustris) [%] | inhibition at 50 µg/mL (Coriolus versicolor) [%] | EC80 (Septoria tritici [2]) [µg/mL] | growth inhibition grade (Septoria tritici [3]) | lesion degree (Puccinia recondita [4]) | inhibition at 1.25 µg/mL (Septoria tritici [3]; Zymoseptoria tritici, read-out: growth inhibition grade) [%] |
| --- | --- | --- | --- | --- | --- | --- | --- | --- | --- | --- | --- | --- | --- | --- | --- | --- | --- | --- |
| C[C@@]1(CCCl)CC[C@@H](Cc2ccc(Cl)cc2)[C@]1(O)Cn1cncn1 (racemic) [Compound I-104, (1RS,2SR,5SR)-5-(4-chlorobenzyl)-2-(2-chloroethyl)-2-methyl-1-(1H-1,2,4-triazol-1-ylmethyl)cyclopentanol] | 60 to 80 | 60 to 80 | 60 to 80 | 60 to 80 | 60 to 80 | ≥ 80 | ≥ 90 | 60 to 80 | ≥ 80 | ≥ 80 | higher efficacy than that of compound (1) | ≥ 90 | 60 to 80 | 60 to 80 | ≤ 0.2 |  |  |  |
| C[C@]1(CCl)CC[C@@H](Cc2ccc(F)cc2F)[C@]1(O)Cn1cncn1 (relative stereo) [Compound I-88] |  |  |  |  |  |  |  |  |  |  | higher efficacy than that of compound (1) |  |  |  |  | 5 (% Mycerial growth inhibition of 80% or higher) | 0.5 (Less than 1%) |  |
| C[C@]1(CCl)CC[C@@H](Cc2cccc(Cl)c2)[C@]1(O)Cn1cncn1 (racemic) [Compound I-74, (1RS,2SR,5SR)-5-(3-chlorobenzyl)-2-chloromethyl-2-methyl-1-(1H-1,2,4-triazol-1-ylmethyl)cyclopentanol] | 60 to 80 | 60 to 80 | 60 to 80 | 60 to 80 | 60 to 80 | ≥ 80 | ≥ 90 | 60 to 80 | ≥ 80 | ≥ 80 | higher efficacy than that of compound (1) | ≥ 90 | 60 to 80 | 60 to 80 | ≤ 0.2 |  |  |  |
| C[C@]1(CCl)CC[C@@H](Cc2ccccc2)[C@]1(O)Cn1cncn1 (racemic) [Compound I-73, (1RS,2SR,5SR)-2-chloromethyl-5-benzyl-2-methyl-1-(1H-1,2,4-triazol-1-ylmethyl)cyclopentanol] | 60 to 80 | 60 to 80 | 60 to 80 | 60 to 80 | 60 to 80 | ≥ 80 | ≥ 90 | 60 to 80 | ≥ 80 | ≥ 80 | higher efficacy than that of compound (1) | ≥ 90 | 60 to 80 | 60 to 80 | ≤ 0.2 |  | 0.5 (Less than 1%) | > 80 |
| C[C@]1(CBr)CC[C@@H](Cc2ccc(F)cc2)[C@]1(O)Cn1cncn1 (racemic) [Compound I-601, (1RS,2SR,5SR)-2-bromomethyl-5-(4-fluorobenzyl)-2-methyl-1-(1H-1,2,4-triazol-1-ylmethyl)cyclopentanol] | 60 to 80 | 60 to 80 | 60 to 80 | 60 to 80 | 60 to 80 | ≥ 80 | ≥ 90 | 60 to 80 | ≥ 80 | ≥ 80 | higher efficacy than that of compound (1) | ≥ 90 | 60 to 80 | 60 to 80 | ≤ 0.2 |  |  |  |
| CC1(C)CCC(Cc2ccc(Cl)cc2)C1(O)Cn1ncnc1S (racemic) [compound (2)] |  |  |  |  |  |  |  |  |  |  |  |  |  |  |  | 1 (% Mycerial growth inhibition of less than 20%) | 5 (50% or higher) |  |
| CC(Cl)=C[C@@]1(C)CC[C@@H](Cc2ccc(Cl)cc2)[C@]1(O)Cn1cncn1 (racemic) [Compound I-15, (1RS,2RS,5SR)-5-(4-chlorobenzyl)-2-(2-chloropropenyl)-2-methyl-1-(1H-1,2,4-triazol-1-ylmethyl)cyclopentanol] | 60 to 80 | 60 to 80 | 60 to 80 | 60 to 80 | 60 to 80 |  | ≥ 90 | 60 to 80 | ≥ 80 | ≥ 80 | higher efficacy than that of compound (1) | ≥ 90 | 60 to 80 | 60 to 80 | ≤ 0.2 |  |  |  |
| C[C@]1(CBr)CC[C@@H](Cc2ccccc2)[C@]1(O)Cn1cncn1 (racemic) [Compound I-602, (1RS,2SR,5SR)-2-bromomethyl-5-benzyl-2-methyl-1-(1H-1,2,4-triazol-1-ylmethyl)cyclopentanol] | 60 to 80 | 60 to 80 | 60 to 80 | 60 to 80 | 60 to 80 | ≥ 80 | ≥ 90 | 60 to 80 | ≥ 80 | ≥ 80 | higher efficacy than that of compound (1) | ≥ 90 | 60 to 80 | 60 to 80 | ≤ 0.2 |  |  |  |
